# Results reported in patent publication US20080090734A1, “DRUG SCREENING AND TARGET IDENTIFICATION USING SPR IMAGING OF TARGET PROTEIN ARRAYS” (The Trustees of California State University, priority 2006, published 2008).
# How the values were obtained:
# Test in all cases: Antibiotic susceptibility profile
# Type in all cases: cell-based, Acinetobacter baumannii
# Set-up in all cases: key: Resistance; Intermediate; Susceptible
# [1] = tested on: A. baumannii clinical isolate LAC 01
# Excerpt: (§1) We obtained over thirty clinical isolates of A. baumannii from nosocomial infections in New York City and Los Angeles. […] Only antibiotics with breakpoints for A. baumannii were used. […] Isolates LA 01 to 20 were acquired from Los Angels County while NY-A to NY-H were obtained from New York City.
# (§2) Antibiotic susceptibility profiles of clinical isolates of A. baumannii and reference strains. R, I, and S denote Resistance, Intermediate and Susceptible, respectively. Genetic Profiling of Clinical Isolates of A. baumannii
# [2] = tested on: A. baumannii clinical isolate LAC 02
# Excerpt: as §1, §2
# [3] = tested on: A. baumannii clinical isolate LAC 03
# Excerpt: as §1, §2
# [4] = tested on: A. baumannii clinical isolate LAC 04
# Excerpt: as §1, §2
# [5] = tested on: A. baumannii clinical isolate LAC 05
# Excerpt: as §1, §2
# [6] = tested on: A. baumannii clinical isolate LAC 06
# Excerpt: as §1, §2
# [7] = tested on: A. baumannii clinical isolate LAC 07
# Excerpt: as §1, §2
# [8] = tested on: A. baumannii clinical isolate LAC 08
# Excerpt: as §1, §2
# [9] = tested on: A. baumannii clinical isolate LAC 09
# Excerpt: as §1, §2
# [10] = tested on: A. baumannii clinical isolate LAC 10
# Excerpt: as §1, §2
# [11] = tested on: A. baumannii clinical isolate LAC 11
# Excerpt: as §1, §2
# [12] = tested on: A. baumannii clinical isolate LAC 12
# Excerpt: as §1, §2
# [13] = tested on: A. baumannii clinical isolate LAC 13
# Excerpt: as §1, §2
# [14] = tested on: A. baumannii clinical isolate LAC 14
# Excerpt: as §1, §2
# [15] = tested on: A. baumannii clinical isolate LAC 15
# Excerpt: as §1, §2
# [16] = tested on: A. baumannii clinical isolate LAC 16
# Excerpt: as §1, §2
# [17] = tested on: A. baumannii clinical isolate LAC 17
# Excerpt: as §1, §2
# [18] = tested on: A. baumannii clinical isolate LAC 18
# Excerpt: as §1, §2
# [19] = tested on: A. baumannii clinical isolate LAC 19
# Excerpt: as §1, §2
# [20] = tested on: A. baumannii clinical isolate LAC 20
# Excerpt: as §1, §2
# [21] = tested on: A. baumannii clinical isolate NY A
# Excerpt: as §1, §2
# [22] = tested on: A. baumannii clinical isolate NY B
# Excerpt: as §1, §2
# [23] = tested on: A. baumannii clinical isolate NY C
# Excerpt: as §1, §2
# [24] = tested on: A. baumannii clinical isolate NY D
# Excerpt: as §1, §2
# [25] = tested on: A. baumannii clinical isolate NY E
# Excerpt: as §1, §2
# [26] = tested on: A. baumannii clinical isolate NY F
# Excerpt: as §1, §2
# [27] = tested on: A. baumannii clinical isolate NY G
# Excerpt: as §1, §2
# [28] = tested on: A. baumannii clinical isolate NY H
# Excerpt: as §1, §2
# [29] = tested on: A. baumannii reference strain 15839; settings: strain 15839 (ATCC)
# Excerpt: as §1, §2
# [30] = tested on: A. baumannii reference strain 17978; settings: strain 17978 (ATCC)
# Excerpt: as §1, §2
# [31] = tested on: A. baumannii reference strain 19606; settings: strain 19606 (ATCC)
# Excerpt: as §1, §2
# [32] = tested on: A. baumannii reference strain AYE
# Excerpt: as §1, §2
# [33] = tested on: A. baumannii reference strain SDF
# Excerpt: as §1, §2
SMILES,Antibiotic susceptibility [1],Antibiotic susceptibility [2],Antibiotic susceptibility [3],Antibiotic susceptibility [4],Antibiotic susceptibility [5],Antibiotic susceptibility [6],Antibiotic susceptibility [7],Antibiotic susceptibility [8],Antibiotic susceptibility [9],Antibiotic susceptibility [10],Antibiotic susceptibility [11],Antibiotic susceptibility [12],Antibiotic susceptibility [13],Antibiotic susceptibility [14],Antibiotic susceptibility [15],Antibiotic susceptibility [16],Antibiotic susceptibility [17],Antibiotic susceptibility [18],Antibiotic susceptibility [19],Antibiotic susceptibility [20],other results
"CN(C)[C@@H]1C(O)=C(C(N)=O)C(=O)[C@@]2(O)C(O)=C3C(=O)c4c(O)cccc4[C@@](C)(O)[C@H]3C[C@@H]12 [TET, Tetracycline]",R,R,R,I,R,R,R,R,R,R,R,R,R,R,R,I,R,R,I,R,Antibiotic susceptibility [21]: I; Antibiotic susceptibility [22]: R; Antibiotic susceptibility [23]: R; Antibiotic susceptibility [24]: R; Antibiotic susceptibility [25]: R; Antibiotic susceptibility [26]: R; Antibiotic susceptibility [27]: R; Antibiotic susceptibility [28]: R; Antibiotic susceptibility [29]: R; Antibiotic susceptibility [30]: S; Antibiotic susceptibility [31]: I; Antibiotic susceptibility [32]: R; Antibiotic susceptibility [33]: I
"CO/N=C(\C(=O)N[C@@H]1C(=O)N2C(C(=O)O)=C(CSc3nc(=O)c(=O)[nH]n3C)CS[C@H]12)c1csc(N)n1 [CRO, Ceftriaxone]",R,R,R,R,I,R,R,I,R,R,R,R,R,R,R,R,R,R,R,R,Antibiotic susceptibility [21]: R; Antibiotic susceptibility [22]: R; Antibiotic susceptibility [23]: R; Antibiotic susceptibility [24]: R; Antibiotic susceptibility [25]: I; Antibiotic susceptibility [26]: R; Antibiotic susceptibility [27]: R; Antibiotic susceptibility [28]: R; Antibiotic susceptibility [29]: R; Antibiotic susceptibility [30]: S; Antibiotic susceptibility [31]: I; Antibiotic susceptibility [32]: R; Antibiotic susceptibility [33]: I
"C[C@H]1c2cccc(O)c2C(=O)C2=C(O)[C@]3(O)C(=O)C(C(N)=O)=C(O)[C@@H](N(C)C)[C@@H]3[C@@H](O)[C@@H]21 [DOX, Doxycycline]",S,S,S,S,S,S,S,S,S,S,R,R,R,R,S,S,S,S,S,S,Antibiotic susceptibility [21]: S; Antibiotic susceptibility [22]: R; Antibiotic susceptibility [23]: S; Antibiotic susceptibility [24]: S; Antibiotic susceptibility [25]: R; Antibiotic susceptibility [26]: S; Antibiotic susceptibility [27]: R; Antibiotic susceptibility [28]: S; Antibiotic susceptibility [29]: R; Antibiotic susceptibility [30]: S; Antibiotic susceptibility [31]: S; Antibiotic susceptibility [32]: S; Antibiotic susceptibility [33]: S
"C[C@@H](O)[C@H]1C(=O)N2C(C(=O)O)=C(SCCN=CN)C[C@H]12 [IPM, Imipenem]",S,I,S,S,S,S,I,S,R,R,S,S,S,S,I,I,I,I,I,I,Antibiotic susceptibility [21]: R; Antibiotic susceptibility [22]: R; Antibiotic susceptibility [23]: R; Antibiotic susceptibility [24]: R; Antibiotic susceptibility [25]: R; Antibiotic susceptibility [26]: R; Antibiotic susceptibility [27]: R; Antibiotic susceptibility [28]: R; Antibiotic susceptibility [29]: S; Antibiotic susceptibility [30]: S; Antibiotic susceptibility [31]: S; Antibiotic susceptibility [32]: R; Antibiotic susceptibility [33]: S
